Earlier results as cited in patent publication US20240307316A1, “ANTIOXIDANT AND OXYGEN-RELEASING LIGNIN COMPOSITES TO ACCELERATE WOUND HEALING” (Board of Supervisors of Louisiana State University and …, priority 2023, published 2024).
Where two headings read alike, the source gives them in different places.

| Compound | concentrations exhibiting cytotoxicity (3T3 FBs) | solubility limit [µg/mL] | solubility (at 20° C.) [µg/mL] | solubility (at 18° C.) [µg/mL] |
| --- | --- | --- | --- | --- |
| [Ca+2].[O-][O-] [CaO2, Calcium peroxide] | higher than 10 mg/mL | 1650 | 1650 | – |
| [Mg+2].[O-][O-] [MgO2, magnesium peroxide] | – | – | – | 860 |
